Measurements taken from ChEMBL document CHEMBL5042552, “Site-Specific Isopeptide Bond Formation: A Powerful Tool for the Generation of Potent and Nontoxic Antimicrobial Peptides” (J Med Chem, 2022).
The source made the active and inactive calls. The rule behind the calls is not given here. Starred links: 1 amine or outer side, 2 acyl side, 3 side chain; linkers in the order of their positions; H or OH if unused. Positions of bridges follow the written chain, without caps; N, C: chain ends. Non-standard residues stand in square brackets, D forms with d. Residues, ends and D or L forms follow the SMILES beside them. Groups on a side chain read outwards from the residue. Chains are numbered I, II in the order given. εLys = N[C@@H](CCCCN[*:1])C(=O)[*:2]

Tests used:
[1] = test system: HEK293; assay: Cytotoxicity against HEK293 cells assessed as reduction in cell viability at 10 to 100 uM incubated for 24 hrs by XTT assay; type: toxicity, cell-based; details: human, hek293, 24 h, dose 10-100 µM
[2] = test system: RAW264.7; assay: Cytotoxicity against mouse RAW264.7 cells assessed as reduction in cell viability at 10 to 100 uM incubated for 24 hrs by XTT assay; type: toxicity, cell-based; details: raw264.7, 24 h, dose 10-100 µM
[3] = target: Trypsin (Homo sapiens, UniProt P07477+P07478+P35030); assay: Stability of compound assessed as trypsin (unknown origin) mediated compound degradation at 100 uM measured after 30 mins by RP-HPLC method; type: ADME, protein assay; details: 0.5 h
[4] = Stability in human plasma after 2 hrs by RP-HPLC method; type: ADME, cell-free
[5] = Hemolytic activity in human erythrocytes at 2.5 to 80 uM incubated for 1 hr by microplate reader assay; type: toxicity, cell-based; details: erythrocyte, dose 2.5-80 µM
[6] = test system: Pseudomonas aeruginosa; assay: Induction of membrane permeabilization in Pseudomonas aeruginosa at MIC concentration by SYTOX-green staining based flow cytometry method; type: functional
[7] = test system: Cell membrane; assay: Disruption of membrane integrity in Pseudomonas aeruginosa at MIC by […] green dye based confocal microscopy analysis
[8] = test system: Cell membrane; assay: Disruption of membrane integrity in Bacillus subtilis at MIC by […] green dye based confocal microscopy analysis
[9] = test system: Cell membrane; assay: Disruption of membrane integrity in Escherichia coli at MIC by […] green dye based confocal microscopy analysis
[10] = test system: Bacillus subtilis; assay: Induction of membrane permeabilization in Bacillus subtilis at MIC concentration by SYTOX-green staining based flow cytometry method; type: functional
[11] = test system: Staphylococcus aureus; assay: Induction of membrane permeabilization in Staphylococcus aureus at MIC concentration by SYTOX-green staining based flow cytometry method; type: functional
[12] = Hemolytic activity in human erythrocytes at 12.5 uM incubated for 1 hr by microplate reader assay; type: toxicity, cell-based; details: erythrocyte
[13] = test system: Cell membrane; assay: Disruption of membrane integrity in Staphylococcus aureus at MIC by […] green dye based confocal microscopy analysis
[14] = test system: Escherichia coli; assay: Induction of membrane permeabilization in Escherichia coli at MIC concentration by SYTOX-green staining based flow cytometry method; type: functional
[15] = test system: RAW264.7; assay: Cytotoxicity against mouse RAW264.7 cells assessed as reduction in cell viability at 100 uM incubated for 24 hrs by XTT assay; type: toxicity, cell-based; details: raw264.7, 24 h
[16] = Hemolytic activity in human erythrocytes at 80 uM incubated for 1 hr by microplate reader assay; type: toxicity, cell-based; details: erythrocyte

SMILES	Activity [1]	Activity [2]	Stability [3]	Stability [4]	Activity [5]	Activity [6]	Activity [7]	Activity [8]	Activity [9]	Activity [10]	Activity [11]	Activity [12]	Activity [13]	Activity [14]	Activity [15]	Activity [16]
CC(C)C[C@H](NC(=O)[C@H](CC(C)C)NC(=O)[C@H](CCCCN)NC(=O)[C@H](CC(C)C)NC(=O)[C@H](CC(C)C)NC(=O)[C@H](CCCCN)NC(=O)[C@H](CCCCN)NC(=O)[C@H](CC(C)C)NC(=O)[C@H](CC(C)C)NC(=O)[C@H](CCCCN)NC(=O)[C@H](CCCCN)NC(=O)[C@H](CC(C)C)NC(=O)[C@H](CC(C)C)NC(=O)[C@@H](N)CCCCNC(=O)[C@@H](N)CC(C)C)C(N)=O (H-K(Leu)LLKKLLKKLLKLL-NH2)	Toxic	Toxic	Unstable	Stable	Non-Toxic	–	–	–	–	–	–	–	–	–	–	–
CC(C)C[C@H](NC(=O)[C@H](CC(C)C)NC(=O)[C@H](CCCCN)NC(=O)[C@H](CC(C)C)NC(=O)[C@H](CC(C)C)NC(=O)[C@H](CCCCN)NC(=O)[C@H](CCCCN)NC(=O)[C@H](CC(C)C)NC(=O)[C@H](CC(C)C)NC(=O)[C@H](CCCCN)NC(=O)[C@@H](N)CCCCNC(=O)[C@H](CC(C)C)NC(=O)[C@H](CC(C)C)NC(=O)[C@H](CCCCN)NC(=O)[C@@H](N)CC(C)C)C(N)=O (H-K([Leu-Leu-Lys-Leu])KLLKKLLKLL-NH2)	Toxic	Toxic	Unstable	Stable	Non-Toxic	–	–	–	–	–	–	–	–	–	–	–
CC(C)C[C@H](NC(=O)[C@H](CC(C)C)NC(=O)[C@H](CCCCN)NC(=O)[C@H](CC(C)C)NC(=O)[C@H](CC(C)C)NC(=O)[C@H](CCCCN)NC(=O)[C@H](CCCCN)NC(=O)[C@H](CC(C)C)NC(=O)[C@H](CC(C)C)NC(=O)[C@H](CCCCN)NC(=O)[C@H](CCCCN)NC(=O)[C@H](CC(C)C)NC(=O)[C@H](CC(C)C)NC(=O)[C@H](CCCCN)NC(=O)[C@@H](N)CC(C)C)C(N)=O (H-LKLLKKLLKKLLKLL-NH2)	Toxic	Toxic	Unstable	Stable	–	98%	inactive	inactive	inactive	41%	46%	Toxic	inactive	98%	–	–
CC(C)C[C@H](NC(=O)[C@H](CC(C)C)NC(=O)[C@@H](N)CCCCNC(=O)[C@H](CC(C)C)NC(=O)[C@H](CC(C)C)NC(=O)[C@H](CCCCN)NC(=O)[C@H](CCCCN)NC(=O)[C@H](CC(C)C)NC(=O)[C@H](CC(C)C)NC(=O)[C@H](CCCCN)NC(=O)[C@H](CCCCN)NC(=O)[C@H](CC(C)C)NC(=O)[C@H](CC(C)C)NC(=O)[C@H](CCCCN)NC(=O)[C@@H](N)CC(C)C)C(N)=O (H-LKLLKKLLKKLL[εLys]LL-NH2)	Toxic	Toxic	Unstable	Stable	–	–	–	–	–	–	–	–	–	–	–	–
CC(C)C[C@H](NC(=O)[C@H](CC(C)C)NC(=O)[C@H](CCCCN)NC(=O)[C@H](CC(C)C)NC(=O)[C@H](CC(C)C)NC(=O)[C@@H](N)CCCCNC(=O)[C@H](CCCCN)NC(=O)[C@H](CC(C)C)NC(=O)[C@H](CC(C)C)NC(=O)[C@H](CCCCN)NC(=O)[C@H](CCCCN)NC(=O)[C@H](CC(C)C)NC(=O)[C@H](CC(C)C)NC(=O)[C@H](CCCCN)NC(=O)[C@@H](N)CC(C)C)C(N)=O (H-LKLLKKLLK[εLys]LLKLL-NH2)	–	–	Unstable	Stable	Non-Toxic	–	–	–	–	–	–	–	–	–	Non-Toxic	Non-Toxic
CC(C)C[C@H](NC(=O)[C@H](CC(C)C)NC(=O)[C@H](CCCCN)NC(=O)[C@H](CC(C)C)NC(=O)[C@H](CC(C)C)NC(=O)[C@H](CCCCN)NC(=O)[C@@H](N)CCCCNC(=O)[C@H](CC(C)C)NC(=O)[C@H](CC(C)C)NC(=O)[C@H](CCCCN)NC(=O)[C@H](CCCCN)NC(=O)[C@H](CC(C)C)NC(=O)[C@H](CC(C)C)NC(=O)[C@H](CCCCN)NC(=O)[C@@H](N)CC(C)C)C(N)=O (H-LKLLKKLL[εLys]KLLKLL-NH2)	–	–	–	Stable	–	98%	Active	Active	Active	98%	89%	–	Active	98%	Non-Toxic	Non-Toxic
CC(C)C[C@H](NC(=O)[C@H](CC(C)C)NC(=O)[C@H](CCCCN)NC(=O)[C@H](CC(C)C)NC(=O)[C@H](CC(C)C)NC(=O)[C@H](CCCCN)NC(=O)[C@H](CCCCN)NC(=O)[C@H](CC(C)C)NC(=O)[C@H](CC(C)C)NC(=O)[C@@H](N)CCCCNC(=O)[C@H](CCCCN)NC(=O)[C@H](CC(C)C)NC(=O)[C@H](CC(C)C)NC(=O)[C@H](CCCCN)NC(=O)[C@@H](N)CC(C)C)C(N)=O (I: H-KLLKKLLKLL-NH2 / II: H-LKLLK; amide I:1-II:C)	Toxic	Toxic	Unstable	Stable	Non-Toxic	–	–	–	–	–	–	–	–	–	–	–
